Assay results reported in ChEMBL document CHEMBL1142688, “Development and preliminary optimization of indole-N-acetamide inhibitors of hepatitis C virus NS5B polymerase” (J Med Chem, 2005).

Legend:
[1] = target: T1, RNA-directed RNA polymerase (Hepacivirus hominis, UniProt O39930); assay: Effective concentration to inhibit the activity of RNA dependent RNA polymerase nonstructural protein 5B in hepatitis C virus; n=1
[2] = target: T1, RNA-directed RNA polymerase; assay: Inhibitory activity against RNA dependent RNA polymerase nonstructural protein 5B in hepatitis C virus; n=1
Hepatitis C virus [3] = assay: (§1) Cytotoxic concentration against hepatitis C virus; assay type: functional, Hepacivirus hominis
[4] = target: T1, RNA-directed RNA polymerase; assay: Inhibitory concentration against RNA dependent RNA polymerase nonstructural protein 5B of hepatitis C virus
Hepacivirus hominis = assay: Concentration to inhibit hepatitis C virus replication by 85%; assay type: functional
[5] = as §1; assay type: functional, Hepacivirus hominis
Hepatitis C virus [6] = assay: Effective concentration to inhibit RNA replication in hepatitis C virus; assay type: functional, organism-based, Hepacivirus hominis
[7] = Total clearance after administration of 20 mg/kg in dog; assay type: ADME, organism-based, Canis lupus familiaris; parameters: dose 20 mg/kg; details: in vivo
[8] = Half life after administration of 20 mg/kg in dog; assay type: ADME, organism-based, Canis lupus familiaris; parameters: dose 20 mg/kg; details: in vivo
[9] = target: T1, RNA-directed RNA polymerase; assay: Inhibitory concentration against NS5B polymerase of Hepatitis C virus; n=1

T1 sequence (O39930 whole entry): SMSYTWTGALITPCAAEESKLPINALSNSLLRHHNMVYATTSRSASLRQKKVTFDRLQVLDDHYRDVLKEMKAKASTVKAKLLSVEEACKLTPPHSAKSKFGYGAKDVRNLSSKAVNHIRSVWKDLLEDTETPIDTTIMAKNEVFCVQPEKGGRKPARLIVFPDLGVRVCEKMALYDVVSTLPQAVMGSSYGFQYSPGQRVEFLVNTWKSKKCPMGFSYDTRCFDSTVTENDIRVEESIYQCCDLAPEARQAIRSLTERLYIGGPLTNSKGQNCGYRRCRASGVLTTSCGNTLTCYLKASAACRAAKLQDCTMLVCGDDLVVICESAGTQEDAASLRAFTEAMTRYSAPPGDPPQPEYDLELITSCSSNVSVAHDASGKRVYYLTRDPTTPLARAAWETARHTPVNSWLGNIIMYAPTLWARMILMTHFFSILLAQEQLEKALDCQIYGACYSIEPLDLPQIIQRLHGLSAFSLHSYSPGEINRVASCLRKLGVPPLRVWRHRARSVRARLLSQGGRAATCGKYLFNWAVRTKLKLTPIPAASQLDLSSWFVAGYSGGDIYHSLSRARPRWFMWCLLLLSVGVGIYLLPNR

Row | Structure (SMILES) | IC50 [2] | CC50 [5] | further results
1 | Cc1ccc(-c2c(C3CCCCC3)c3ccc(C(=O)O)cc3n2CC(=O)N2CCOCC2)cc1 | 0.011 µM |  | EC50 [1]: 0.3 µM; CC50 (Hepatitis C virus [3]): > 50 µM
2 | O=C(O)c1ccc2c(c1)nc(-c1ccc(O)cc1F)n2C1CCCCC1 |  |  | IC50 [4]: 0.0014 µM
3 | CN(C)C(=O)Cn1c(-c2ccc(OCc3ccccc3)cc2)c(C2CCCCC2)c2ccc(C(=O)O)cc21 | 0.006 µM | > 50 µM | Concentration (Hepacivirus hominis): 0.3 µM
4 | O=C(O)c1ccc2c(c1)nc(-c1ccc(OCc3cc(C(=O)N4CCC(O)CC4)ccc3-c3ccc(Cl)cc3)cc1F)n2C1CCCCC1 |  |  | EC50 (Hepatitis C virus [6]): 0.5 µM; IC50 [4]: < 0.006 µM
5 | Cn1c(-c2ccccc2)c(C2CCCCC2)c2ccc(C(=O)O)cc21 | 0.028 µM |  | 
6 | CN(C)C(=O)Cn1c(-c2cccc(Cl)c2)c(C2CCCCC2)c2ccc(C(=O)O)cc21 | 0.04 µM | > 50 µM | 
7 | CN(C)C(=O)Cn1c(-c2ccccc2Cl)c(C2CCCCC2)c2ccc(C(=O)O)cc21 | 0.372 µM | > 50 µM | 
8 | CS(=O)(=O)NC(=O)Cn1c(-c2ccccc2)c(C2CCCCC2)c2ccc(C(=O)O)cc21 | 0.045 µM |  | 
9 | CN(C)C(=O)Cn1c(-c2ccccc2)c(C2CCCCC2)c2ccc(C(=O)O)cc21 | 0.059 µM | > 50 µM | clearance [7]: 3 mL/min/kg; half-life [8]: 4.8 h
10 | O=C(O)c1ccc2c(c1)nc(-c1ccc(O)cc1)n2C1CCCCC1 |  |  | IC50 [4]: 0.003 µM
11 | O=C(O)c1ccc2c(C3CCCCC3)c(-c3ccccc3)n(CCN3CCOCC3)c2c1 | 0.111 µM |  | 
12 | Cc1ccc(-c2c(C3CCCCC3)c3ccc(C(=O)O)cc3n2CC(=O)N(C)C)cc1 | 0.017 µM | > 50 µM | 
13 | O=C(O)c1ccc2c(c1)cc(-c1ccc(O)cc1)n2C1CCCCC1 |  |  | IC50 [4]: 0.34 µM
14 | O=C(O)c1ccc2c(C3CCCCC3)c(-c3ccccc3)n(S(=O)(=O)c3ccccc3)c2c1 | 0.485 µM |  | 
15 | O=C(O)c1ccc2c(C3CCCCC3)c(-c3ccc(O)cc3)[nH]c2c1 |  |  | IC50 [4]: 0.0048 µM
16 | O=C(O)c1ccc2c(C3CCCCC3)c(-c3ccccc3)n(Cc3ccccc3)c2c1 | 0.037 µM |  | 
17 | CN(C)C(=O)Cn1c(-c2cccc(F)c2)c(C2CCCCC2)c2ccc(C(=O)O)cc21 | 0.018 µM | > 50 µM | 
18 | O=C(O)c1ccc2c(C3CCCCC3)c(-c3ccccc3)[nH]c2c1 | 0.048 µM |  | 
19 | CN(C)C(=O)Cn1c(-c2ccc(Cl)cc2)c(C2CCCCC2)c2ccc(C(=O)O)cc21 |  | > 50 µM | IC50 [9]: 0.015 µM
20 | O=C(O)c1ccc2c(C3CCCCC3)c(-c3ccccc3)n(CC(=O)N3CCOCC3)c2c1 | 0.026 µM | > 50 µM | 
21 | COc1ccc(-c2c(C3CCCCC3)c3ccc(C(=O)O)cc3n2CC(=O)N(C)C)cc1 | 0.018 µM | > 50 µM | 
